Measurements: the supplement of paper PMC8671470

Each molecule was assayed on HL-60 (assay: cell viability (% survival relative to DMSO control); higher = less cytotoxic). Details: drug1 concentration 10 nM; drug2 concentration 50 nM; 72 h.
Method: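 8x8 drug-combination matrices (0-5000 nM; rosiglitazone and lestaurtinib 0-1000 nM) were run in HL-60 cells for 72 h with a CellTiter-Glo read-out. Survival is normalised to DMSO and 10 µM bortezomib and clipped at 100%. Bliss synergy was analysed in SynergyFinder.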
`O=C(C1CC1)N1CC[C@@H](C=C2NNC(=O)N2c2ccc(-c3ccc4occc4c3)cc2)C1` + CS(=O)(=O)N1CCN(Cc2cc3nc(-c4cccc5[nH]ncc45)nc(N4CCOCC4)c3s2)CC1 [Pictilisib] was tested, and the cell viability was 61.7%. `O=C(C1CC1)N1CC[C@@H](C=C2NNC(=O)N2c2ccc(-c3ccc4occc4c3)cc2)C1` + C[C@H](NC(=O)c1sccc1OCc1ccc(Cl)cc1)c1ccccc1 [as1949490] gave a cell viability of 83.4%. `O=C(C1CC1)N1CC[C@@H](C=C2NNC(=O)N2c2ccc(-c3ccc4occc4c3)cc2)C1` + O=C(c1c2ccccc2cc2ccccc12)N1CCC(N2CCC[C@@H](C(=O)N3CCOCC3)C2)CC1 [CP-640186] was tested, and the cell viability was 95.2%. In the case of `CC(C)c1onc(-c2c(Cl)cccc2Cl)c1COc1ccc(/C=C/c2cccc(C(=O)O)c2)c(Cl)c1` [GW4064] + Cn1cc(-c2ccncc2)c(-c2ccc(OCc3ccc4ccccc4n3)cc2)n1 [PF-02545920], the cell viability is reported as over 100%.

Same assay, conditions: drug1 concentration 10 nM; drug2 concentration 100 nM; 72 h
With `O=C(C1CC1)N1CC[C@@H](C=C2NNC(=O)N2c2ccc(-c3ccc4occc4c3)cc2)C1` + CS(=O)(=O)N1CCN(Cc2cc3nc(-c4cccc5[nH]ncc45)nc(N4CCOCC4)c3s2)CC1 [Pictilisib] the cell viability was 58.5%. Work on `O=C(C1CC1)N1CC[C@@H](C=C2NNC(=O)N2c2ccc(-c3ccc4occc4c3)cc2)C1` + C[C@H](NC(=O)c1sccc1OCc1ccc(Cl)cc1)c1ccccc1 [as1949490] yielded a cell viability of 83.4%. `O=C(C1CC1)N1CC[C@@H](C=C2NNC(=O)N2c2ccc(-c3ccc4occc4c3)cc2)C1` + O=C(c1c2ccccc2cc2ccccc12)N1CCC(N2CCC[C@@H](C(=O)N3CCOCC3)C2)CC1 [CP-640186] was tested, and the cell viability was 90%. `CC(C)c1onc(-c2c(Cl)cccc2Cl)c1COc1ccc(/C=C/c2cccc(C(=O)O)c2)c(Cl)c1` [GW4064] + Cn1cc(-c2ccncc2)c(-c2ccc(OCc3ccc4ccccc4n3)cc2)n1 [PF-02545920] was tested, and the cell viability was over 100%.

Same assay, conditions: drug1 concentration 10 nM; drug2 concentration 500 nM; 72 h
With `O=C(C1CC1)N1CC[C@@H](C=C2NNC(=O)N2c2ccc(-c3ccc4occc4c3)cc2)C1` + CS(=O)(=O)N1CCN(Cc2cc3nc(-c4cccc5[nH]ncc45)nc(N4CCOCC4)c3s2)CC1 [Pictilisib] the cell viability was 49%. `O=C(C1CC1)N1CC[C@@H](C=C2NNC(=O)N2c2ccc(-c3ccc4occc4c3)cc2)C1` + C[C@H](NC(=O)c1sccc1OCc1ccc(Cl)cc1)c1ccccc1 [as1949490] was tested, and the cell viability was 78.1%. In the case of `O=C(C1CC1)N1CC[C@@H](C=C2NNC(=O)N2c2ccc(-c3ccc4occc4c3)cc2)C1` + O=C(c1c2ccccc2cc2ccccc12)N1CCC(N2CCC[C@@H](C(=O)N3CCOCC3)C2)CC1 [CP-640186], the cell viability is reported as 88.5%. In the case of `CC(C)c1onc(-c2c(Cl)cccc2Cl)c1COc1ccc(/C=C/c2cccc(C(=O)O)c2)c(Cl)c1` [GW4064] + Cn1cc(-c2ccncc2)c(-c2ccc(OCc3ccc4ccccc4n3)cc2)n1 [PF-02545920], the cell viability is reported as 65.9%.

Same assay, conditions: drug1 concentration 10 nM; drug2 concentration 1000 nM; 72 h
Work on `O=C(C1CC1)N1CC[C@@H](C=C2NNC(=O)N2c2ccc(-c3ccc4occc4c3)cc2)C1` + CS(=O)(=O)N1CCN(Cc2cc3nc(-c4cccc5[nH]ncc45)nc(N4CCOCC4)c3s2)CC1 [Pictilisib] yielded a cell viability of 50.8%. In the case of `O=C(C1CC1)N1CC[C@@H](C=C2NNC(=O)N2c2ccc(-c3ccc4occc4c3)cc2)C1` + C[C@H](NC(=O)c1sccc1OCc1ccc(Cl)cc1)c1ccccc1 [as1949490], the cell viability is reported as 76.1%. `O=C(C1CC1)N1CC[C@@H](C=C2NNC(=O)N2c2ccc(-c3ccc4occc4c3)cc2)C1` + O=C(c1c2ccccc2cc2ccccc12)N1CCC(N2CCC[C@@H](C(=O)N3CCOCC3)C2)CC1 [CP-640186] showed a cell viability of 84.2%. In the case of `CC(C)c1onc(-c2c(Cl)cccc2Cl)c1COc1ccc(/C=C/c2cccc(C(=O)O)c2)c(Cl)c1` [GW4064] + Cn1cc(-c2ccncc2)c(-c2ccc(OCc3ccc4ccccc4n3)cc2)n1 [PF-02545920], the cell viability is reported as over 100%.

Same assay, conditions: drug1 concentration 10 nM; drug2 concentration 5000 nM; 72 h
`O=C(C1CC1)N1CC[C@@H](C=C2NNC(=O)N2c2ccc(-c3ccc4occc4c3)cc2)C1` + CS(=O)(=O)N1CCN(Cc2cc3nc(-c4cccc5[nH]ncc45)nc(N4CCOCC4)c3s2)CC1 [Pictilisib] gave a cell viability of 42.6%. `O=C(C1CC1)N1CC[C@@H](C=C2NNC(=O)N2c2ccc(-c3ccc4occc4c3)cc2)C1` + C[C@H](NC(=O)c1sccc1OCc1ccc(Cl)cc1)c1ccccc1 [as1949490] was tested, and the cell viability was 72.6%. `O=C(C1CC1)N1CC[C@@H](C=C2NNC(=O)N2c2ccc(-c3ccc4occc4c3)cc2)C1` + O=C(c1c2ccccc2cc2ccccc12)N1CCC(N2CCC[C@@H](C(=O)N3CCOCC3)C2)CC1 [CP-640186] showed a cell viability of 79.4%. `CC(C)c1onc(-c2c(Cl)cccc2Cl)c1COc1ccc(/C=C/c2cccc(C(=O)O)c2)c(Cl)c1` [GW4064] + Cn1cc(-c2ccncc2)c(-c2ccc(OCc3ccc4ccccc4n3)cc2)n1 [PF-02545920] was tested, and the cell viability was over 100%.

Same assay, conditions: drug1 concentration 50 nM; drug2 concentration 5 nM; 72 h
`O=C(C1CC1)N1CC[C@@H](C=C2NNC(=O)N2c2ccc(-c3ccc4occc4c3)cc2)C1` + CS(=O)(=O)N1CCN(Cc2cc3nc(-c4cccc5[nH]ncc45)nc(N4CCOCC4)c3s2)CC1 [Pictilisib] gave a cell viability of 66.5%. `O=C(C1CC1)N1CC[C@@H](C=C2NNC(=O)N2c2ccc(-c3ccc4occc4c3)cc2)C1` + C[C@H](NC(=O)c1sccc1OCc1ccc(Cl)cc1)c1ccccc1 [as1949490] showed a cell viability of 82.7%. In the case of `O=C(C1CC1)N1CC[C@@H](C=C2NNC(=O)N2c2ccc(-c3ccc4occc4c3)cc2)C1` + O=C(c1c2ccccc2cc2ccccc12)N1CCC(N2CCC[C@@H](C(=O)N3CCOCC3)C2)CC1 [CP-640186], the cell viability is reported as 88.2%. Work on `CC(C)c1onc(-c2c(Cl)cccc2Cl)c1COc1ccc(/C=C/c2cccc(C(=O)O)c2)c(Cl)c1` [GW4064] + Cn1cc(-c2ccncc2)c(-c2ccc(OCc3ccc4ccccc4n3)cc2)n1 [PF-02545920] yielded a cell viability of over 100%.

Same assay, conditions: drug1 concentration 50 nM; drug2 concentration 10 nM; 72 h
`O=C(C1CC1)N1CC[C@@H](C=C2NNC(=O)N2c2ccc(-c3ccc4occc4c3)cc2)C1` + CS(=O)(=O)N1CCN(Cc2cc3nc(-c4cccc5[nH]ncc45)nc(N4CCOCC4)c3s2)CC1 [Pictilisib] showed a cell viability of 58.9%. For `O=C(C1CC1)N1CC[C@@H](C=C2NNC(=O)N2c2ccc(-c3ccc4occc4c3)cc2)C1` + C[C@H](NC(=O)c1sccc1OCc1ccc(Cl)cc1)c1ccccc1 [as1949490], the cell viability was 79.5%. `O=C(C1CC1)N1CC[C@@H](C=C2NNC(=O)N2c2ccc(-c3ccc4occc4c3)cc2)C1` + O=C(c1c2ccccc2cc2ccccc12)N1CCC(N2CCC[C@@H](C(=O)N3CCOCC3)C2)CC1 [CP-640186] was tested, and the cell viability was 86.2%. `CC(C)c1onc(-c2c(Cl)cccc2Cl)c1COc1ccc(/C=C/c2cccc(C(=O)O)c2)c(Cl)c1` [GW4064] + Cn1cc(-c2ccncc2)c(-c2ccc(OCc3ccc4ccccc4n3)cc2)n1 [PF-02545920] was tested, and the cell viability was over 100%.

Same assay, conditions: drug1 concentration 50 nM; drug2 concentration 50 nM; 72 h
`O=C(C1CC1)N1CC[C@@H](C=C2NNC(=O)N2c2ccc(-c3ccc4occc4c3)cc2)C1` + CS(=O)(=O)N1CCN(Cc2cc3nc(-c4cccc5[nH]ncc45)nc(N4CCOCC4)c3s2)CC1 [Pictilisib] was tested, and the cell viability was 54.4%. `O=C(C1CC1)N1CC[C@@H](C=C2NNC(=O)N2c2ccc(-c3ccc4occc4c3)cc2)C1` + C[C@H](NC(=O)c1sccc1OCc1ccc(Cl)cc1)c1ccccc1 [as1949490] was tested, and the cell viability was 74.8%. `O=C(C1CC1)N1CC[C@@H](C=C2NNC(=O)N2c2ccc(-c3ccc4occc4c3)cc2)C1` + O=C(c1c2ccccc2cc2ccccc12)N1CCC(N2CCC[C@@H](C(=O)N3CCOCC3)C2)CC1 [CP-640186] showed a cell viability of 82.5%. In the case of `CC(C)c1onc(-c2c(Cl)cccc2Cl)c1COc1ccc(/C=C/c2cccc(C(=O)O)c2)c(Cl)c1` [GW4064] + Cn1cc(-c2ccncc2)c(-c2ccc(OCc3ccc4ccccc4n3)cc2)n1 [PF-02545920], the cell viability is reported as over 100%.

Same assay, conditions: drug1 concentration 50 nM; drug2 concentration 100 nM; 72 h
Molecule `O=C(C1CC1)N1CC[C@@H](C=C2NNC(=O)N2c2ccc(-c3ccc4occc4c3)cc2)C1` + CS(=O)(=O)N1CCN(Cc2cc3nc(-c4cccc5[nH]ncc45)nc(N4CCOCC4)c3s2)CC1 [Pictilisib] has a cell viability of 51.3%. `O=C(C1CC1)N1CC[C@@H](C=C2NNC(=O)N2c2ccc(-c3ccc4occc4c3)cc2)C1` + C[C@H](NC(=O)c1sccc1OCc1ccc(Cl)cc1)c1ccccc1 [as1949490] gave a cell viability of 68.3%. Molecule `O=C(C1CC1)N1CC[C@@H](C=C2NNC(=O)N2c2ccc(-c3ccc4occc4c3)cc2)C1` + O=C(c1c2ccccc2cc2ccccc12)N1CCC(N2CCC[C@@H](C(=O)N3CCOCC3)C2)CC1 [CP-640186] has a cell viability of 78.2%. With `CC(C)c1onc(-c2c(Cl)cccc2Cl)c1COc1ccc(/C=C/c2cccc(C(=O)O)c2)c(Cl)c1` [GW4064] + Cn1cc(-c2ccncc2)c(-c2ccc(OCc3ccc4ccccc4n3)cc2)n1 [PF-02545920] the cell viability was 88.4%.

Same assay, conditions: drug1 concentration 50 nM; drug2 concentration 500 nM; 72 h
With `O=C(C1CC1)N1CC[C@@H](C=C2NNC(=O)N2c2ccc(-c3ccc4occc4c3)cc2)C1` + CS(=O)(=O)N1CCN(Cc2cc3nc(-c4cccc5[nH]ncc45)nc(N4CCOCC4)c3s2)CC1 [Pictilisib] the cell viability was 44.4%.
